In brackets after ≈: the same amount, converted by molar mass. Activity calls are given as the source filed them. The calls are words filed in the database; no cut-off is given here.
Experiments:
Staphylococcus aureus [1] = experiment: Antimicrobial activity against Staphylococcus aureus ATCC 29213 assessed as inhibition of bacterial growth incubated for 18 hrs by serial dilution method; format: functional
NIH3T3 [2] = experiment: Induction of cell proliferation in mouse NIH3T3 cells assessed as increase in cell viability at 0.1 to 1000 nM incubated for 48 hrs by MTT assay; format: functional, cell-based; details: dose 0.1-1000 nM
Pseudomonas aeruginosa [3] = experiment: Antimicrobial activity against Pseudomonas aeruginosa PAO1 assessed as inhibition of bacterial growth incubated for 18 hrs by serial dilution method; format: functional
NIH3T3 [4] = experiment: Induction of cell migration in mouse NIH3T3 cells assessed as […] at 0.1 to 1000 nM incubated for 48 hrs by phase-contrast microscopy based scratch wound healing assay; format: functional; details: dose 0.1-1000 nM
HEK293 [5] = experiment: Induction of cell proliferation in human HEK293 cells expressing NK1R assessed as increase in cell viability at 0.1 to 1000 nM incubated for 48 hrs by MTT assay; format: functional, cell-based; details: dose 0.1-1000 nM
Bacillus subtilis = experiment: Antimicrobial activity against Bacillus subtilis ATCC 23857 assessed as inhibition of bacterial growth incubated for 18 hrs by serial dilution method; format: functional
RAW264.7 [6] = experiment: Anti-inflammatory activity in LPS-stimulated mouse RAW264.7 cells assessed as inhibition of NO production at 16 uM incubated for 24 hrs by Griess reagent based assay; format: functional, cell-based
RAW264.7 [7] = experiment: Cytotoxicity against mouse RAW264.7 cells assessed as reduction in cell viability at 1 to 16 uM incubated for 24 hrs by MTT assay; format: toxicity, cell-based; details: raw264.7, 24 h, dose 1-16 µM
Escherichia coli [8] = experiment: Antimicrobial activity against Escherichia coli ML-35 assessed as inhibition of bacterial growth incubated for 18 hrs by serial dilution method; format: functional
Pseudomonas aeruginosa [9] = experiment: Antimicrobial activity against Pseudomonas aeruginosa ATCC 27853 assessed as inhibition of bacterial growth incubated for 18 hrs by serial dilution method; format: functional
HEK293 [10] = experiment: Induction of cell proliferation in human HEK293 cells assessed as increase in cell viability at 0.1 to 1000 nM incubated for 48 hrs by MTT assay; format: functional, cell-based; details: dose 0.1-1000 nM
Staphylococcus aureus [11] = experiment: Antimicrobial activity against Staphylococcus aureus ATCC 25923 assessed as inhibition of bacterial growth incubated for 18 hrs by serial dilution method; format: functional
Mus musculus [12] = species on record: Mus musculus; experiment: Wound healing activity in Kunming mouse full-thickness excisional wound model assessed as increase in wound closure at 1 10^-7M, TOP BID and measured upto 8 days by image analysis; format: functional, organism-based; details: time <= 8.0 day
[13] = Hemolytic activity in mouse erythrocytes assessed as haemoglobin release at 400 uM incubated for 1 hrs by microplate reader method; format: toxicity, cell-based, Erythrocyte; details: read-out: Activity
Escherichia coli [14] = experiment: Antimicrobial activity against Escherichia coli ATCC 25922 assessed as inhibition of bacterial growth incubated for 18 hrs by serial dilution method; format: functional
Mus musculus [15] = species on record: Mus musculus; experiment: Antimicrobial activity in Staphylococcus aureus ATCC 25923 infected Kunming mouse excisional wound model assessed as decrease in bacterial growth at 1 10^-4M, TOP BID and measured upto 8 days by image analysis; format: functional, organism-based; details: time <= 8.0 day
Staphylococcus aureus [16] = experiment: Bactericidal activity against Staphylococcus aureus ATCC 25923 assessed as reduction in colony forming unit at 2 times MIC and measured after 120 mins by time-kill kinetics assay; format: functional, organism-based
Mus musculus [17] = species on record: Mus musculus; experiment: Wound healing activity in Staphylococcus aureus ATCC 25923 infected Kunming mouse excisional wound model assessed as increase in wound repair at 1 10^-4M, TOP BID and measured upto 8 days by image analysis; format: functional, organism-based; details: time <= 8.0 day
Lipopolysaccharide (LPS) = experiment: Binding affinity to Escherichia coli O111:B4 LPS assessed as dissociation constant by ITC assay
[18] = Cytotoxicity against mouse RAW264.7 cells assessed as cell survival rate at 16 uM incubated for 24 hrs by MTT assay; format: toxicity, cell-based; details: read-out: Survival
RAW264.7 [19] = experiment: Anti-inflammatory activity against LPS-stimulated mouse RAW264.7 cells assessed as reduction in IL-1beta mRNA expression level at 1 to 16 uM incubated for 4 hrs by RT-qPCR analysis; format: functional, cell-based; details: dose 1-16 µM
RAW264.7 [20] = experiment: Anti-inflammatory activity against LPS-stimulated mouse RAW264.7 cells assessed as reduction in IL-6 mRNA expression level at 1 to 16 uM incubated for 4 hrs by RT-qPCR analysis; format: functional, cell-based; details: dose 1-16 µM
Mus musculus [21] = species on record: Mus musculus; experiment: Wound healing activity in Kunming mouse full-thickness excisional wound model with splints assessed as increase in wound healing rate at 1 10^-7M, TOP BID and measured upto 8 days by image analysis; format: functional, organism-based; details: time <= 8.0 day
RAW264.7 [22] = experiment: Anti-inflammatory activity against LPS-stimulated mouse RAW264.7 cells assessed as reduction in TNF-alpha mRNA expression level at 1 to 16 uM incubated for 4 hrs by RT-qPCR analysis; format: functional, cell-based; details: dose 1-16 µM

Molecule | MIC (Staphylococcus aureus [1]) | Activity (NIH3T3 [2]) | MIC (Pseudomonas aeruginosa [3]) | Activity (NIH3T3 [4]) | Activity (HEK293 [5]) | MIC (Bacillus subtilis) | inhibition (RAW264.7 [6]) | MIC (Escherichia coli [8]) | MIC (Pseudomonas aeruginosa [9]) | Activity (HEK293 [10]) | MIC (Staphylococcus aureus [11]) | Activity (Mus musculus [12]) | hemolysis at 1 h, 400 µM [13] | MIC (Escherichia coli [14]) | also measured
CSCC[C@H](NC(=O)[C@H](CC(C)C)NC(=O)CNC(=O)[C@H](Cc1ccccc1)NC(=O)[C@H](Cc1ccccc1)NC(=O)[C@H](CCC(N)=O)NC(=O)[C@H](CO)NC(=O)[C@H](C)NC(=O)[C@H](CCCCN)NC(=O)CNC(=O)[C@@H](N)[C@H](C)O)C(N)=O | > 128 µM | Active | > 128 µM | Active | Active | > 128 µM | inactive | > 128 µM | > 128 µM | inactive | > 128 µM | Active | 5.05% | > 128 µM | Activity (RAW264.7 [7]): Non-Toxic
CC1(C)S[C@@H]2[C@H](NC(=O)[C@H](N)c3ccc(O)cc3)C(=O)N2[C@H]1C(=O)O [AMOXICILLIN] | 2 µM (≈ 0.731 µg/mL) | – | > 128 µM | – | – | 8 µM (≈ 2.92 µg/mL) | – | 16 µM (≈ 5.85 µg/mL) | > 128 µM | – | < 1 µM | – | – | 4 µM (≈ 1.46 µg/mL) | –
CN[C@H](CC(C)C)C(=O)N[C@H]1C(=O)N[C@@H](CC(N)=O)C(=O)N[C@H]2C(=O)N[C@H]3C(=O)N[C@H](C(=O)N[C@H](C(=O)O)c4cc(O)cc(O)c4-c4cc3ccc4O)[C@H](O)c3ccc(c(Cl)c3)Oc3cc2cc(c3O[C@@H]2O[C@H](CO)[C@@H](O)[C@H](O)[C@H]2O[C@H]2C[C@](C)(N)[C@H](O)[C@H](C)O2)Oc2ccc(cc2Cl)[C@H]1O [VANCOMYCIN] | < 1 µM | – | > 128 µM | – | – | < 1 µM | – | 64 µM (≈ 92.8 µg/mL) | > 128 µM | – | < 1 µM | – | – | 64 µM (≈ 92.8 µg/mL) | Activity (Mus musculus [15]): Active; Activity (Staphylococcus aureus [16]): inactive; Activity (Mus musculus [17]): Active
H-LKKWLKKWTGKASQFFGLM-NH2 | 8 µM | Active | 4 µM | Active | Active | 2 µM | Active | 2 µM | 4 µM | inactive | 4 µM | Active | 7.88% | 2 µM | Kd (Lipopolysaccharide (LPS)): 25 µM; viability at 24 h, 16 µM [18]: > 90%; Activity (RAW264.7 [19]): Dose-Dependent Effect; Activity (RAW264.7 [20]): Dose-Dependent Effect; Activity (Mus musculus [21]): Active; Activity (RAW264.7 [22]): Dose-Dependent Effect
